This is an account of results in patent US10501451B2, “Selective NR2B antagonists” (BRISTOL-MYERS SQUIBB COMPANY, priority 2015, dated 2019).

The target in test [1] is brain-resident NR2B-subtype receptors (Mus musculus (Mouse), UniProt P35438+Q01097). The experiment in a line: Ex vivo occupancy assay. In kind it is in vivo. As to conditions: iv, mouse. On the procedure:
Ex Vivo Occupancy Assay. […] 7-9 weeks old male CD-1 mice were dosed intravenously in a vehicle consisting of 10% dimethylacetamide, 40% PEG-400, 30% hydroxypropyl betacyclodextrin, and 30% water with experimental compounds and the forebrains were harvested 15 minutes post-dosing by decapitation. The brain samples were immediately snap-frozen and stored at −80° C. On the following day, the dosed brain samples were thawed on ice for 15-20 minutes followed by homogenization using Polytron for 10 seconds in cold homogenization buffer composed of 50 mM KH2PO4 (pH adjusted to 7.4 with KOH), 1 mM EDTA, 0.005% Triton X 100 and protease inhibitor cocktail (Sigma Aldrich). The crude homogenates were further homogenized using a Dounce homogenizer and the homogenized membrane aliquots from all animals were flash-frozen and stored at −80° C. until further use. The whole homogenization process was performed on ice. For determining occupancy, the membrane homogenates were first thawed on ice and then needle-homogenized using a 25 gauge needle. The homogenized membrane (6.4 mg/ml) was added to a 96-well plate followed by addition of ^3H Ro 25-6981 (6 nM). The reaction mixture was incubated for 5 minutes on a shaker at 4° C. and then harvested onto GF/B filter plates (treated with 0.5% PEI for 1 hr at room temperature). The filter plates were dried at 50° C. for 20 mins, incubated with microscint 20 for 10 minutes and read on TopCount (Perkin Elmer). Each dose or compound group consisted of 4-5 animals. The control group of animals was dosed with vehicle alone. Membrane from each animal was added in triplicates to the assay plate. Non-specific binding was determined using 10 μM Ro 25-6981 added to the wells containing membrane homogenates from vehicle-dosed animals. Specific counts/minute was converted to % occupancy at each dose of a compound for each animal using the following equation: […]
Drug levels were determined by mass spectroscopy in the usual manner. Drug levels in the blood plasma were 572 nM in at this dose, and drug levels in the homogenized brain tissue were 863 nM.

Another test has as its target hERG channels (Homo sapiens (Human), UniProt Q12809). The experiment in a line: hERG electrophysiology assay (patch clamp). Conditions: HEK 293 cells stably expressing hERG channels, tail current. In kind it is cell-based. On the procedure: hERG Electrophysiology Assay. The experimental compounds were assessed for hERG activity on HEK 293 cells stably expressing hERG channels using patch clamp technique. Coverslips plated with hERG expressing cells were placed in the experimental chamber and were perfused with a solution composed of (in mM): 140 NaCl, 4 KCl, 1.8 CaCl2, 1 MgCl2, 10 Glucose, 10 HEPES (pH 7.4, NaOH) at room temperature. Borosilicate patch pipettes had tip resistances of 2-4 Mohms when filled with an internal solution containing: 130 KCl, 1 MgCl2, 1 CaCl2, 10 EGTA, 10 HEPES, 5 ATP-K2 (pH 7.2, KOH). The cells were clamped at −80 mV in whole cell configuration using an Axopatch 200B (Axon instruments, Union City, Calif.) patch clamp amplifier controlled by pClamp (Axon instruments) software. […] First, tail currents were recorded in presence of extracellular solution alone (control) and subsequently, in extracellular solution containing increasing compound concentrations. […] The percentage inhibition at each concentration was calculated as reduction in peak tail current with respect to the peak tail current recorded in the presence of control solution. […]
For orientation: Block of hERG is tested as a sign of cardiac risk.

A further test has as its system mice. The experiment in a line: Mouse Forced Swim Test (mFST). In kind it is in vivo. As to conditions: 1 mg/Kg i.v., 15 min before 6 min swim session. On the procedure: Mouse Forced Swim Test (mFST). Forced Swim Test (FST) is an animal model used to assess antidepressant compounds in preclinical studies. The FST was performed similar to the method of Porsolt et al. with modifications (Porsolt R D, Bertin A, Jalfre M. Behavioral despair in mice: a primary screening test for antidepressants. Arch Int Pharmacodyn Thér 1977; 229:327-36). In this paradigm, mice are forced to swim in an inescapable cylinder filled with water. Under these conditions, mice will initially try to escape and eventually develop immobility behavior; this behavior is interpreted as a passive stress-coping strategy or depression-like behavior. […] The duration of immobility was evaluated during the total 6 min of the test and expressed as duration (sec) of immobility. […] All testing sessions were recorded with a video camera (Sony Handicam, Model: DCR-HC38E; PAL) and scoring was done using the Forced Swim Scan, Version 2.0 software (Clever Systems Inc., Reston, Va., USA; see Hayashi E, Shimamura M, Kuratani K, Kinoshita M, Hara H. Automated experimental system capturing three behavioral components during murine forced swim test. Life Sci. 2011 Feb. 28; 88(9-10):411-7 and Yuan P, Tragon T, Xia M, Leclair C A, Skoumbourdis A P, Zheng W, Thomas C J, Huang R, Austin C P, Chen G, Guitart X. Phosphodiesterase 4 inhibitors enhance sexual pleasure-seeking activity in rodents. […]

brain-resident NR2B-subtype receptors, sequence (Q01097 27-1482, other chains not shown): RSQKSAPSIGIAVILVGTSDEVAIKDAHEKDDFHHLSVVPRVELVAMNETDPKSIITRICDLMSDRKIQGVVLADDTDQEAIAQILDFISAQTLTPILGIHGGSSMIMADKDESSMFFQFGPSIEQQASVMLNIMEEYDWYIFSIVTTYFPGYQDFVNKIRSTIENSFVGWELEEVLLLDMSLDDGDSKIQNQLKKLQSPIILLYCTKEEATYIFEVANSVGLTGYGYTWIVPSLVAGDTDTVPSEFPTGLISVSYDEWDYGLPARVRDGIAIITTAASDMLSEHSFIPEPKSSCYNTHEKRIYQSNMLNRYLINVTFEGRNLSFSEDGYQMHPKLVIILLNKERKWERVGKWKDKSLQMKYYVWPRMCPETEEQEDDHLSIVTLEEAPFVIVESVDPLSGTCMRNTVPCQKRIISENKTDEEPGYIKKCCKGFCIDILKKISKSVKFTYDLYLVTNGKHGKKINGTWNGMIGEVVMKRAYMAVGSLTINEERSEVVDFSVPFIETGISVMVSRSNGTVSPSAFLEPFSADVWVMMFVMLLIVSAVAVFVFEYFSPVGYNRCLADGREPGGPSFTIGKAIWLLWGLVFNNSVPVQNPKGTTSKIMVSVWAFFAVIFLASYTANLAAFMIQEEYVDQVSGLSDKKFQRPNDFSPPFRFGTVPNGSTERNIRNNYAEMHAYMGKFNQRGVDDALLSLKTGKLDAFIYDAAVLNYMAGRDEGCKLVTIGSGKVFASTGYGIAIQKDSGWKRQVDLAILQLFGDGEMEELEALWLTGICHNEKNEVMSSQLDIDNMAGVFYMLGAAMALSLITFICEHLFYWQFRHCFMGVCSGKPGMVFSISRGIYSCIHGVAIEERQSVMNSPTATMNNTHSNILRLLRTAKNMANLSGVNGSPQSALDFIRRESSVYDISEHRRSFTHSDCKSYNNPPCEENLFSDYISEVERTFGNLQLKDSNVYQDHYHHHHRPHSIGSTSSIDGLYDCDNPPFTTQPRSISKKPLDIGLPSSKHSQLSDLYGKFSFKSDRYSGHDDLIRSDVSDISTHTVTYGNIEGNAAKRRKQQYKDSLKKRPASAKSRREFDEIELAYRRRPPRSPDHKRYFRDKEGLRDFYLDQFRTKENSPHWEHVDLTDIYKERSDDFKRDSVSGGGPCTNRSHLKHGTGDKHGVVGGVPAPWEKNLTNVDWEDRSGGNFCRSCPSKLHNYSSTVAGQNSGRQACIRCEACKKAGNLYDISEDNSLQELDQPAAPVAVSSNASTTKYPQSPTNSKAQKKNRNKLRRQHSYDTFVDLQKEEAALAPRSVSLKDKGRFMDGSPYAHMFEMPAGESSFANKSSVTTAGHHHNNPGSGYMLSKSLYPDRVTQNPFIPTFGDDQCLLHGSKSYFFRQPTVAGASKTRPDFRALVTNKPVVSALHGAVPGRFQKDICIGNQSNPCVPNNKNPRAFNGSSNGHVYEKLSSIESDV
hERG channels, sequence (Q12809 whole entry, the tested form may be a part): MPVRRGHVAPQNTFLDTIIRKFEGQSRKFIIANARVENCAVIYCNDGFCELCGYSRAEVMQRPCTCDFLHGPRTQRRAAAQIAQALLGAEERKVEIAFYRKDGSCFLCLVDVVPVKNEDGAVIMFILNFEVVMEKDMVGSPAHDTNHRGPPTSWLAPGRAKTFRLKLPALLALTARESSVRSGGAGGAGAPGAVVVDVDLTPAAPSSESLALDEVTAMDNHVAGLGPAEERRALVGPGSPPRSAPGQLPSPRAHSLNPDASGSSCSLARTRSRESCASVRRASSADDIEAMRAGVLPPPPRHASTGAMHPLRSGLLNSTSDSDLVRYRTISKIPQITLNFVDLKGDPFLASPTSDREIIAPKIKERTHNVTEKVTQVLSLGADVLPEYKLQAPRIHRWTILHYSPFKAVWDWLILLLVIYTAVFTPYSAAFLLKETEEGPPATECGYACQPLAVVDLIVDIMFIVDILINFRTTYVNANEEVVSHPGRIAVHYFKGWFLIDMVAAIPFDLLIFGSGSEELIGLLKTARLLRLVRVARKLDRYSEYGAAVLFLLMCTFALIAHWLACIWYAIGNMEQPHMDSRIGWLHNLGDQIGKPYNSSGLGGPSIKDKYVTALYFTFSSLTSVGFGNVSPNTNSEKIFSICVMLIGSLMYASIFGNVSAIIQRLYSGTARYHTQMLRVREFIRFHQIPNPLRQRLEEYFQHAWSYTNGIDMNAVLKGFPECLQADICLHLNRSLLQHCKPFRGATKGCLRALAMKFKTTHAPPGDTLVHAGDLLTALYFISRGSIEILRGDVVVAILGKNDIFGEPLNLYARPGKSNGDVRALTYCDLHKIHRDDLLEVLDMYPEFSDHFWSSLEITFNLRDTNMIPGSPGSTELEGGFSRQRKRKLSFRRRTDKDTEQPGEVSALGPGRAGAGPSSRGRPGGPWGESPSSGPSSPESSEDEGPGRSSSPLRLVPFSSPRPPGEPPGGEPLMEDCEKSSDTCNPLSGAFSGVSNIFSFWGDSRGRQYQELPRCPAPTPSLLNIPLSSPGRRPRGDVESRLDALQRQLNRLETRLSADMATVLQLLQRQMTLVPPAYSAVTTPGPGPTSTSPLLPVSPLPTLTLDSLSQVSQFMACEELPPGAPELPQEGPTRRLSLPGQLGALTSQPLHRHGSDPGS

What is called IC50 is the concentration needed to halve the response being measured. Lower therefore signals greater potency in that assay. Compound `Cc1ccc(CN2OCC(N3CCN(c4ccc(O)cn4)CC3)C2=O)cc1` (single isomer, unassigned) [Example 10, P-1, 4-(4-(5-hydroxypyridin-2-yl)piperazin-1-yl)-2-(4-methylbenzyl)isoxazolidin-3-one] displayed a receptor occupancy at 1 mg/kg in test [1] (1 mg/Kg i.v., forced swim test animals) of 69%. This compound also returned a receptor occupancy at 3 mg/kg in test [1] (3 mg/Kg i.v., forebrain harvested 15 minutes post-dosing) of 94%. This compound showed an IC50 against hERG channels of 30 µM. Besides, the immobility time result with mice is listed as “statistically significant decrease”.
